In ChEMBL document CHEMBL4507324 (2021):

Tests used:
Details in all cases: Compound concentration 100.0 nM
[1] = target: Non-receptor tyrosine-protein kinase TYK2 (Homo sapiens) (UniProt P29597)
[2] = system: Fibroblast growth factor receptor 3 (Homo sapiens), P22607 [G697C]
[3] = target: Myosin-IIIb (Homo sapiens) (UniProt Q8WXR4)
[4] = target: Serine/threonine-protein kinase MRCK gamma (Homo sapiens) (UniProt Q6DT37)
[5] = target: Myosin light chain kinase family member 4 (Homo sapiens) (UniProt Q86YV6)
[6] = target: Vascular endothelial growth factor receptor 1 (Homo sapiens) (UniProt P17948)
[7] = target: Interleukin-1 receptor-associated kinase 4 (Homo sapiens) (UniProt Q9NWZ3)
[8] = system: Tyrosine-protein kinase ABL1 (Homo sapiens), P00519 [E255K]
[9] = target: Cyclin-dependent kinase-like 5 (Homo sapiens) (UniProt O76039)
[10] = target: Mitogen-activated protein kinase kinase kinase kinase 4 (Homo sapiens) (UniProt O95819)
[11] = target: Dual specificity protein kinase TTK (Homo sapiens) (UniProt P33981)
[12] = target: Casein kinase I isoform alpha (Homo sapiens) (UniProt P48729)
[13] = target: Aurora kinase A (Homo sapiens) (UniProt O14965)
[14] = target: Receptor tyrosine-protein kinase erbB-2 (Homo sapiens) (UniProt P04626)
[15] = system: Epidermal growth factor receptor (Homo sapiens), P00533 [UNDEFINED MUTATION]
[16] = target: Serine/threonine-protein kinase 35 (Homo sapiens) (UniProt Q8TDR2)
[17] = target: Mitogen-activated protein kinase kinase kinase kinase 2 (Homo sapiens) (UniProt Q12851)
[18] = target: Serine/threonine-protein kinase D1 (Homo sapiens) (UniProt Q15139)
[19] = target: BMP-2-inducible protein kinase (Homo sapiens) (UniProt Q9NSY1)
[20] = system: Mast/stem cell growth factor receptor Kit (Homo sapiens), P10721 [D816H]
[21] = target: Tyrosine-protein kinase Blk (Homo sapiens) (UniProt P51451)
[22] = target: LIM domain kinase 2 (Homo sapiens) (UniProt P53671)
[23] = target: G protein-coupled receptor kinase 4 (Homo sapiens) (UniProt P32298)
[24] = system: Epidermal growth factor receptor (Homo sapiens), P00533 [L861Q]
[25] = target: Serine/threonine-protein kinase 4 (Homo sapiens) (UniProt Q13043)
[26] = target: Tyrosine-protein kinase FRK (Homo sapiens) (UniProt P42685)
[27] = system: Epidermal growth factor receptor (Homo sapiens), P00533 [UNDEFINED MUTATION]; remark: listed apart in the source
[28] = target: Megakaryocyte-associated tyrosine-protein kinase (Homo sapiens) (UniProt P42679)
[29] = system: Epidermal growth factor receptor (Homo sapiens), P00533 [G719C]
[30] = target: Serine/threonine-protein kinase PLK2 (Homo sapiens) (UniProt Q9NYY3)
[31] = target: Tyrosine-protein kinase receptor TYRO3 (Homo sapiens) (UniProt Q06418)
[32] = target: Serine/threonine-protein kinase 17A (Homo sapiens) (UniProt Q9UEE5)
[33] = target: SRSF protein kinase 3 (Homo sapiens) (UniProt Q9UPE1)
[34] = target: Myosin-IIIa (Homo sapiens) (UniProt Q8NEV4)
[35] = target: Serine/threonine-protein kinase Nek4 (Homo sapiens) (UniProt P51957)
[36] = target: Epithelial discoidin domain-containing receptor 1 (Homo sapiens) (UniProt Q08345)
[37] = target: Ephrin type-B receptor 1 (Homo sapiens) (UniProt P54762)
[38] = target: Protein kinase C iota type (Homo sapiens) (UniProt P41743)
[39] = target: Serine/threonine-protein kinase NIM1 (Homo sapiens) (UniProt Q8IY84)
[40] = target: Tyrosine-protein kinase TXK (Homo sapiens) (UniProt P42681)
[41] = target: Serine/threonine-protein kinase Sgk1 (Homo sapiens) (UniProt O00141)
[42] = system: Proto-oncogene tyrosine-protein kinase receptor Ret (Homo sapiens), P07949 [V804M]
[43] = target: Serine/threonine-protein kinase PRP4 homolog (Homo sapiens) (UniProt Q13523)
[44] = target: Calcium/calmodulin-dependent protein kinase type 1G (Homo sapiens) (UniProt Q96NX5)
[45] = target: AP2-associated protein kinase 1 (Homo sapiens) (UniProt Q2M2I8)
[46] = target: SRSF protein kinase 2 (Homo sapiens) (UniProt P78362)

Chain of Proto-oncogene tyrosine-protein kinase receptor Ret (Homo sapiens), P07949 [V804M] (P07949 whole entry V804M): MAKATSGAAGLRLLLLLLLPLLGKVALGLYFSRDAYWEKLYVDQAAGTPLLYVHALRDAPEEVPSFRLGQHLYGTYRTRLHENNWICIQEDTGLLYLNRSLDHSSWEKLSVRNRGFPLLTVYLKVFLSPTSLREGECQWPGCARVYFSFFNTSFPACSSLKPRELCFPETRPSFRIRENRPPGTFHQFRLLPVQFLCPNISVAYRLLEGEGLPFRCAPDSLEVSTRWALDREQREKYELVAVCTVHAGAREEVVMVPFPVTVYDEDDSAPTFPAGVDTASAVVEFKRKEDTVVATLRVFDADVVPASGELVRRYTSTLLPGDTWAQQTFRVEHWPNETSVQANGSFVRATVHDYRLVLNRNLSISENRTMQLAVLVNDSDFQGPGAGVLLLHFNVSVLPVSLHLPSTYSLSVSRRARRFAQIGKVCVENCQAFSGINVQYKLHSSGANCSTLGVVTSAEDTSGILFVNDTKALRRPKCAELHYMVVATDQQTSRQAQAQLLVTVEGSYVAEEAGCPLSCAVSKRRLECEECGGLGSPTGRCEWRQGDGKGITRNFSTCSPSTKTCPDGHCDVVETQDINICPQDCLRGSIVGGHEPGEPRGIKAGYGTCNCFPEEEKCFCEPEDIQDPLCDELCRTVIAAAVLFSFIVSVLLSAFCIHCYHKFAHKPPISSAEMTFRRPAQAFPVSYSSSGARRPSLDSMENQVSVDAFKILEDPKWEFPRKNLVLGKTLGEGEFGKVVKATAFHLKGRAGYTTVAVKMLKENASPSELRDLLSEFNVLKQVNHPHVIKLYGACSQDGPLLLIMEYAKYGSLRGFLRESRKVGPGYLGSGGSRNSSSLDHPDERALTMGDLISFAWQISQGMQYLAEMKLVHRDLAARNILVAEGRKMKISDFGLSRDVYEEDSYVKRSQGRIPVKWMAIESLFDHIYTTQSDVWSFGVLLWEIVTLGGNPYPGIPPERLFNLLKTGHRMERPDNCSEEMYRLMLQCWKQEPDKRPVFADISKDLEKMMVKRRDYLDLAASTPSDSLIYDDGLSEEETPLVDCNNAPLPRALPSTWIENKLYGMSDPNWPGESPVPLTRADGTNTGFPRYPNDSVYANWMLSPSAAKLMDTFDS
Chain of Receptor tyrosine-protein kinase erbB-2 (Homo sapiens) (P04626 whole entry): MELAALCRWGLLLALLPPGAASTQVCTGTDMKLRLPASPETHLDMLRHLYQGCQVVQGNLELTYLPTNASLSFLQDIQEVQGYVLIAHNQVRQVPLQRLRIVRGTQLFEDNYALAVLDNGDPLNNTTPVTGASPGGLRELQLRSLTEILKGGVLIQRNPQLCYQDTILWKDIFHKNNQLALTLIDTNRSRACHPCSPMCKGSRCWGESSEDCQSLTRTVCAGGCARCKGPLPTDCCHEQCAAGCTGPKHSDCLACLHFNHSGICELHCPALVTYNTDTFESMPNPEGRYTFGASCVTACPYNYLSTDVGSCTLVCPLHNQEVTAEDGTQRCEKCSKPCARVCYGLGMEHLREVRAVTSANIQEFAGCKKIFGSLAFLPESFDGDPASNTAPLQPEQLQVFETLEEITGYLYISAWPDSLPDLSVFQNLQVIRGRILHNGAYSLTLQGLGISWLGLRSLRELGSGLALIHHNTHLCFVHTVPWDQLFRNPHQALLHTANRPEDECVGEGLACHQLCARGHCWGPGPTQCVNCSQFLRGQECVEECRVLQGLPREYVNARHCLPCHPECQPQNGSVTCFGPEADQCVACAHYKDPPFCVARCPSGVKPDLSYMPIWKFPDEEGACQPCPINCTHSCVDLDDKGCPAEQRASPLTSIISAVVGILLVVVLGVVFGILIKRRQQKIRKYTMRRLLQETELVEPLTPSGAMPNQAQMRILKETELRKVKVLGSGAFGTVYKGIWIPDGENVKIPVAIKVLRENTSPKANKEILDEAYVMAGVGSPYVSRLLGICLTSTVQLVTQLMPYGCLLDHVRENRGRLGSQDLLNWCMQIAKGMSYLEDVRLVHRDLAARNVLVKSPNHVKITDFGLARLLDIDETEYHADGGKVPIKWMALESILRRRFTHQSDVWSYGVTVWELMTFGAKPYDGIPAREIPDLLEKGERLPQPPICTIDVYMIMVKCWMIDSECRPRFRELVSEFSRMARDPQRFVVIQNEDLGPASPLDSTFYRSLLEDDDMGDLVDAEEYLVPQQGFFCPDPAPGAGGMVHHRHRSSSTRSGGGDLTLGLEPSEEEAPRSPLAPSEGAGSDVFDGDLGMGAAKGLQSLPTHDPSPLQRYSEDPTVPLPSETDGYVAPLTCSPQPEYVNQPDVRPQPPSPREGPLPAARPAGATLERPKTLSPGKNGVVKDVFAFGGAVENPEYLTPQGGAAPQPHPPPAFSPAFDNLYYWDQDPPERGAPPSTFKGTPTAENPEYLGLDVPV
Chain of Mitogen-activated protein kinase kinase kinase kinase 2 (Homo sapiens) (Q12851 whole entry): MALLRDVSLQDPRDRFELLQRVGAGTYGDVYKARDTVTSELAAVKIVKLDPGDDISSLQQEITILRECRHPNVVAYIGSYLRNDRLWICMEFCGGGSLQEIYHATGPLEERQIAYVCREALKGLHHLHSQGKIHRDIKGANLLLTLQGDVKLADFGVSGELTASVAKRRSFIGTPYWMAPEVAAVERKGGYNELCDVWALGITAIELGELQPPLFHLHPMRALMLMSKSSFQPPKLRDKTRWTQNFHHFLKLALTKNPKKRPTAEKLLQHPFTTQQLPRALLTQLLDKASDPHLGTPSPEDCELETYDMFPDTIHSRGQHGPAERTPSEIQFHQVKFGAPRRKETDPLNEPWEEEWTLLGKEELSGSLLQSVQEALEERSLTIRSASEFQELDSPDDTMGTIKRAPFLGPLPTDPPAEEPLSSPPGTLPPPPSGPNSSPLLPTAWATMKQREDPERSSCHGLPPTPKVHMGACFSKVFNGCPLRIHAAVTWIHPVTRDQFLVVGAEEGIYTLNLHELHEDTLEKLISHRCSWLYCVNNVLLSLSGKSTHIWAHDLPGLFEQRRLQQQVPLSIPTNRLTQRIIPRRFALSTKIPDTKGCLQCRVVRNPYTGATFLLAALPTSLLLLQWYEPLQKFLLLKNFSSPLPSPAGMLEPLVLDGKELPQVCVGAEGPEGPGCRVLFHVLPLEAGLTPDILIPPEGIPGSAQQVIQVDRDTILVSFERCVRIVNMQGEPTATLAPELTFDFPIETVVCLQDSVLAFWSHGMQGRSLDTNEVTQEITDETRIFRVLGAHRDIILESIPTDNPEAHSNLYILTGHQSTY
Chain of Mast/stem cell growth factor receptor Kit (Homo sapiens), P10721 [D816H] (P10721 whole entry D816H): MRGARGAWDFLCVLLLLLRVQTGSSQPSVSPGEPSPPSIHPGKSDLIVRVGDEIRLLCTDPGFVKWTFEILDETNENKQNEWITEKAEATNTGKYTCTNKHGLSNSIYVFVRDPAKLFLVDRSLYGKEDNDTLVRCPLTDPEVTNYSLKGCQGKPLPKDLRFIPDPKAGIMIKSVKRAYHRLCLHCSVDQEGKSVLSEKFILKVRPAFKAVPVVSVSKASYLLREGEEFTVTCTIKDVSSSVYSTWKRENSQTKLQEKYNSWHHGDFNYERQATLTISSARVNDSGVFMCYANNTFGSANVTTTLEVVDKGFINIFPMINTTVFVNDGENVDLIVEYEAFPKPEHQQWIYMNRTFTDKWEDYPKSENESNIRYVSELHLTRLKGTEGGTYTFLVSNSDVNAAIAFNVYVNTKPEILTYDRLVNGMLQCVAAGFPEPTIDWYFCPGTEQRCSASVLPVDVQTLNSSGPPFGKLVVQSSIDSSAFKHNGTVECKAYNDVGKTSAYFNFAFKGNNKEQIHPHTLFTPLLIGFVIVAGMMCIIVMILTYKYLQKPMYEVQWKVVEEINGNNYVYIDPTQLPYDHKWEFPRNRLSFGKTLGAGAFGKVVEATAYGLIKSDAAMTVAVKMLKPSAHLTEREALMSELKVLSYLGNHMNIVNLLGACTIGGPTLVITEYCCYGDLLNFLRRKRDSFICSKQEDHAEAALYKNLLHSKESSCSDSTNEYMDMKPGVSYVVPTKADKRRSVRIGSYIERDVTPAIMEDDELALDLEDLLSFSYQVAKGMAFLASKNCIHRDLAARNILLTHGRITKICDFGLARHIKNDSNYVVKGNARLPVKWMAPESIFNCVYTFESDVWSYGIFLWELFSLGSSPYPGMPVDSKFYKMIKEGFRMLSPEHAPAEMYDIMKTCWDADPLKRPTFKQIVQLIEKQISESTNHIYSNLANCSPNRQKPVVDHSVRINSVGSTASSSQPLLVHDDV
Chain of Epithelial discoidin domain-containing receptor 1 (Homo sapiens) (Q08345 whole entry, the tested form may be a part): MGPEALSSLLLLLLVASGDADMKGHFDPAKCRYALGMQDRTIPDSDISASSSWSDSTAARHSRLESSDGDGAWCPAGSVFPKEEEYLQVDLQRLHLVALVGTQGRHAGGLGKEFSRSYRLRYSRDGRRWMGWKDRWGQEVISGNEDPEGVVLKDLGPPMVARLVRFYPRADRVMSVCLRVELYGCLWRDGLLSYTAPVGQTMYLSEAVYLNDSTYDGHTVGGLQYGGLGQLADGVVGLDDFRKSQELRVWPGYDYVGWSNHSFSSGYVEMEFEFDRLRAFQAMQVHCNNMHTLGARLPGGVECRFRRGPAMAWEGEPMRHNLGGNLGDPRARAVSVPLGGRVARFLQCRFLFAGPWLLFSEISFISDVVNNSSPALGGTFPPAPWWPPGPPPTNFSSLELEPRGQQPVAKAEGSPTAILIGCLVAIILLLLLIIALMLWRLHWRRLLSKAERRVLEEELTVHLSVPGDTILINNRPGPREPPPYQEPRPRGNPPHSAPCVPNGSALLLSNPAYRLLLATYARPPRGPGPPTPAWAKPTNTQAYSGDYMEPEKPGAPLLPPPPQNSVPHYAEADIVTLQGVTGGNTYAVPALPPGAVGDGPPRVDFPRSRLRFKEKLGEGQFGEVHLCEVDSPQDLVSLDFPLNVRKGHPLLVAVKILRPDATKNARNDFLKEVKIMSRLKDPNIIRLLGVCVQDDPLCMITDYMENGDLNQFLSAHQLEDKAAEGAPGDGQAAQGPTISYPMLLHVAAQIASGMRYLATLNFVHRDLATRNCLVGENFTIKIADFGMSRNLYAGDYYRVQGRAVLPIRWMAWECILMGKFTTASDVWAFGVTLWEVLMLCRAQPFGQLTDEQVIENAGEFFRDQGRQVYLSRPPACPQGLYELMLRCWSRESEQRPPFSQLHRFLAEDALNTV

**Q.** How did the residual activity [1] turn out when `CS(=O)(=O)N1CCCC(NC(=O)[C@H](CCC2CCCCC2)NC(=O)c2ccc(CNc3ncnc4c3nnn4-c3ccccc3)cc2)C1` (some centres not stated) [SR-301] was run?
**A.** The residual activity was 99%.

**Q.** What about the residual activity [2] of the same compound?
**A.** Its residual activity is 83%.

**Q.** What about the residual activity [3] of the same compound?
**A.** Its residual activity is 100%.

**Q.** What about the residual activity [4] of the same compound?
**A.** The residual activity was 99%.

**Q.** What about the residual activity [5] of the same compound?
**A.** Its residual activity is 100%.

**Q.** And the residual activity [6]?
**A.** The residual activity was 86%.

**Q.** What about the residual activity [7] of the same compound?
**A.** Its residual activity is 100%.

**Q.** What about the residual activity [8] of the same compound?
**A.** Its residual activity is 87%.

**Q.** What about the residual activity [9] of the same compound?
**A.** Its residual activity is 100%.

**Q.** What about the residual activity [10] of the same compound?
**A.** The residual activity was 66%.

**Q.** What about the residual activity [11] of the same compound?
**A.** Its residual activity is 91%.

**Q.** What about the residual activity [12] of the same compound?
**A.** Its residual activity is 99%.

**Q.** And the residual activity [13]?
**A.** Its residual activity is 100%.

**Q.** And the residual activity [14]?
**A.** The residual activity was 100%.

**Q.** And the residual activity [15]?
**A.** Its residual activity is 93%.

**Q.** And the residual activity [16]?
**A.** The residual activity was 100%.

**Q.** And the residual activity [17]?
**A.** The residual activity was 100%.

**Q.** What about the residual activity [18] of the same compound?
**A.** The residual activity was 91%.

**Q.** What about the residual activity [19] of the same compound?
**A.** The residual activity was 84%.

**Q.** And the residual activity [20]?
**A.** Its residual activity is 68%.

**Q.** And the residual activity [21]?
**A.** The residual activity was 100%.

**Q.** What about the residual activity [22] of the same compound?
**A.** The residual activity was 100%.

**Q.** What about the residual activity [23] of the same compound?
**A.** Its residual activity is 100%.

**Q.** And the residual activity [24]?
**A.** Its residual activity is 100%.

**Q.** And the residual activity [25]?
**A.** The residual activity was 100%.

**Q.** What about the residual activity [26] of the same compound?
**A.** Its residual activity is 60%.

**Q.** And the residual activity [27]?
**A.** Its residual activity is 100%.

**Q.** What about the residual activity [28] of the same compound?
**A.** Its residual activity is 100%.

**Q.** And the residual activity [29]?
**A.** The residual activity was 86%.

**Q.** What about the residual activity [30] of the same compound?
**A.** Its residual activity is 99%.

**Q.** And the residual activity [31]?
**A.** Its residual activity is 90%.

**Q.** What about the residual activity [32] of the same compound?
**A.** Its residual activity is 100%.

**Q.** And the residual activity [33]?
**A.** Its residual activity is 100%.

**Q.** What about the residual activity [34] of the same compound?
**A.** The residual activity was 97%.

**Q.** What about the residual activity [35] of the same compound?
**A.** Its residual activity is 100%.

**Q.** What about the residual activity [36] of the same compound?
**A.** The residual activity was 89%.

**Q.** And the residual activity [37]?
**A.** The residual activity was 100%.

**Q.** And the residual activity [38]?
**A.** Its residual activity is 100%.

**Q.** And the residual activity [39]?
**A.** Its residual activity is 60%.

**Q.** What about the residual activity [40] of the same compound?
**A.** The residual activity was 77%.

**Q.** And the residual activity [41]?
**A.** The residual activity was 100%.

**Q.** And the residual activity [42]?
**A.** The residual activity was 82%.

**Q.** And the residual activity [43]?
**A.** Its residual activity is 60%.

**Q.** And the residual activity [44]?
**A.** Its residual activity is 92%.

**Q.** What about the residual activity [45] of the same compound?
**A.** Its residual activity is 90%.

**Q.** And the residual activity [46]?
**A.** The residual activity was 34%.

**Q.** What does the source list for `CS(=O)(=O)N1CCCC(NC(=O)[C@H](CCC2CCCCC2)NC(=O)c2ccc(CNC(=O)c3cnc4ccccn34)cc2)C1` (some centres not stated) [SR-302]?
**A.** residual activity [1]: 84%; residual activity [2]: 86%; residual activity [3]: 89%; residual activity [4]: 98%; residual activity [5]: 63%; residual activity [6]: 100%; residual activity [7]: 100%; residual activity [8]: 74%; residual activity [9]: 100%; residual activity [10]: 100%; residual activity [11]: 91%; residual activity [12]: 100%; residual activity [13]: 100%; residual activity [14]: 100%; residual activity [15]: 90%; residual activity [16]: 100%; residual activity [17]: 92%; residual activity [18]: 93%; residual activity [19]: 92%; residual activity [20]: 44%; residual activity [21]: 100%; residual activity [22]: 92%; residual activity [23]: 100%; residual activity [24]: 100%; residual activity [25]: 100%; residual activity [26]: 77%; residual activity [27]: 66%; residual activity [28]: 100%; residual activity [29]: 100%; residual activity [30]: 100%; residual activity [31]: 83%; residual activity [32]: 100%; residual activity [33]: 100%; residual activity [34]: 99%; residual activity [35]: 100%; residual activity [36]: 0.1%; residual activity [37]: 89%; residual activity [38]: 94%; residual activity [39]: 64%; residual activity [40]: 91%; residual activity [41]: 100%; residual activity [42]: 100%; residual activity [43]: 74%; residual activity [44]: 84%; residual activity [45]: 92%; residual activity [46]: 83%
